Values after ≈ are worked out from the molar mass of the structure shown.
Legend:
[1] = system: lymphocytes from the spleen of Balb/c mice incubated with lymphocytes from the spleen of CBA mice
Experimental: 0.5×10^6 lymphocytes from the spleen of female (8-10 weeks) Balb/c mice are incubated for 5 days in 0.2 ml cell growth medium with ca. 0.5×10^6 lymphocytes from the spleen of female (8-10 weeks) CBA mice. Test substance is added to the medium at various concentrations. Activity is assessed by ability to suppress proliferation associated DNA synthesis as determined by incorporation of radiolabelled thymidine.

[2] = system: plaque forming, i.e. antibody producing, cells (lymphocytes from the spleen of OFI mice co-cultured with sheep erythrocytes); type: cell-based; conditions: 3 days co-culture with sheep erythrocytes
Experimental: Ca. 10^7 lymphocytes from the spleen of OFI, female mice are co-cultured with ca. 3×10^7 sheep erythrocytes for 3 days. Test substance is added to the incubation medium in varying concentrations. Lymphocytes are harvested and plated onto agar with fresh sheep erythrocytes as antigen. Sensitised lymphocytes secrete antibody that coats the erythrocytes, which lyse to form a plaque in the presence of complement. Activity is assessed by reduction in the number of plaque forming, i.e. antibody producing, cells. Cyclosporins in accordance with the present invention reduce the numbers of plaque forming cells at concentrations of the order of from 0.03 to 0.05 μg/ml.

CC[C@@H]1NC(=O)[C@H]([C@H](O)[C@H](C)C/C=C/COC(=O)OC)N(C)C(=O)[C@H](C(C)C)N(C)C(=O)[C@H](CC(C)C)N(C)C(=O)[C@H](CC(C)C)N(C)C(=O)[C@@H](C)NC(=O)[C@H](C)NC(=O)[C@H](CC(C)C)N(C)C(=O)[C@H](C(C)C)NC(=O)[C@H](CC(C)C)N(C)C(=O)CN(C)C1=O [Example 1, [(8'-Methoxycarbonyloxy)MeBmt]^1 -Ciclosporin]
IC50, test 1.1 murine mixed lymphocyte reaction (thymidine incorporation) [1]: 0.015 µg/mL (≈ 0.0117 µM) | IC50, test 1.2 Mishell-Dutton test (number of plaque forming cells) [2]: 0.043 µg/mL

From patent US5643870A, “O-acylated cyclosporins” (Sandoz Ltd., priority 1992, dated 1997)
